Laboratory results published in patent US20260335323A1, “CHIMERIC MOLECULE” (UCL Business Ltd, priority 2023, published 2026).

What was measured:
p62/SQSTM1 = experiment: Western blot, p62/SQSTM1 levels in PANC-1 cells; type: cell-based, human
Description: (§1) FIG. 2. BL-918 is a potent ULK1 agonist and autophagy inducer (A) Representative images of PANC-1 cells stably expressing the mCherry-EGFP-LC3 tandem reporter treated with ULK1 agonists. Nuclei stained with Hoechst 33342, autophagosomes are shown in the EGFP channel and autolysosomes in the mCherry channel. Fold change in the number of autophagosomes (B) and autolysosomes (C) puncta in ULK1 agonist treated cells. (D) Western blot of PANC-1 cells treated with DMSO, bafilomycin and ULK1 agonists±bafilomycin; probed for p-ULK1 (S317), ULK1, p62, b-actin, LC3-I and LC3-II. Quantifications of western blot for changes in the ratio of p-ULK1 (S317):ULK1 (E), p62 (F) and LC31:LC3II (G). All data shown are mean±SEM, n=3, *p<0.05, ** p<0.01, one-way ANOVA with Dunnett's multiple comparisons test.
FIG. 4. ULKTACs retain ULK1 agonist activity and subsequent induction of autophagy (A) Western blot of PANC-1 cells treated with ULKTACs±bafilomycin, probed for p-ULK1 (S317), ULK1, p62, b-Actin, LC31 and LC3II. Quantifications of (A) for the pULK1:ULK1 ratio (B) LC3I:LC3II ratio (C) and changes in p62 (D). (E) Representative images of PANC-1 cells stably expressing the mCherry-EGFP-LC3 tandem reporter treated with ULKTACs w/or w/o bafilomycin. Nuclei stained with Hoechst 33342, autophagosomes are shown in the EGFP channel and autolysosomes in the mCherry channel. […]
Cells were homogenised in protein lysis buffer consisting of 0.1 M Tris pH 8.0, 0.1 M NaCl, 5% glycerol, IGEPAL® CA-630 (#18896. Sigma-Aldrich) and 5 mM EDTA, 0.1 M N-ethyl maleimide (ThermoFisher, #23030) and protease inhibitor (Cell Signalling Technologies, #5871). Protein concentrations were determined using the BCA assay to ensure equal loading. […]
(§2) Membranes were then incubated with horseradish peroxidase (HRP)-conjugated secondary antibodies (Rabbit #7074 and Mouse #7076) purchased from Cell Signalling Technologies for 1 hour and the HRP signal was detected using EZ-ECL Enhanced Chemiluminescence Detection Kit for HRP (#20-500-500, Sartorius), and imaged with an Alliance Q9 Advanced (UVITec). […]

ULK1 = target: T1, ULK1 (Homo sapiens, UniProt O75385); experiment: Western blot, phosphorylation of ULK1 at Ser317 in PANC-1 cells; type: cell-based; set-up: pSer317 blot or TOM20 co-localisation
T1 sequence (O75385 1-1050): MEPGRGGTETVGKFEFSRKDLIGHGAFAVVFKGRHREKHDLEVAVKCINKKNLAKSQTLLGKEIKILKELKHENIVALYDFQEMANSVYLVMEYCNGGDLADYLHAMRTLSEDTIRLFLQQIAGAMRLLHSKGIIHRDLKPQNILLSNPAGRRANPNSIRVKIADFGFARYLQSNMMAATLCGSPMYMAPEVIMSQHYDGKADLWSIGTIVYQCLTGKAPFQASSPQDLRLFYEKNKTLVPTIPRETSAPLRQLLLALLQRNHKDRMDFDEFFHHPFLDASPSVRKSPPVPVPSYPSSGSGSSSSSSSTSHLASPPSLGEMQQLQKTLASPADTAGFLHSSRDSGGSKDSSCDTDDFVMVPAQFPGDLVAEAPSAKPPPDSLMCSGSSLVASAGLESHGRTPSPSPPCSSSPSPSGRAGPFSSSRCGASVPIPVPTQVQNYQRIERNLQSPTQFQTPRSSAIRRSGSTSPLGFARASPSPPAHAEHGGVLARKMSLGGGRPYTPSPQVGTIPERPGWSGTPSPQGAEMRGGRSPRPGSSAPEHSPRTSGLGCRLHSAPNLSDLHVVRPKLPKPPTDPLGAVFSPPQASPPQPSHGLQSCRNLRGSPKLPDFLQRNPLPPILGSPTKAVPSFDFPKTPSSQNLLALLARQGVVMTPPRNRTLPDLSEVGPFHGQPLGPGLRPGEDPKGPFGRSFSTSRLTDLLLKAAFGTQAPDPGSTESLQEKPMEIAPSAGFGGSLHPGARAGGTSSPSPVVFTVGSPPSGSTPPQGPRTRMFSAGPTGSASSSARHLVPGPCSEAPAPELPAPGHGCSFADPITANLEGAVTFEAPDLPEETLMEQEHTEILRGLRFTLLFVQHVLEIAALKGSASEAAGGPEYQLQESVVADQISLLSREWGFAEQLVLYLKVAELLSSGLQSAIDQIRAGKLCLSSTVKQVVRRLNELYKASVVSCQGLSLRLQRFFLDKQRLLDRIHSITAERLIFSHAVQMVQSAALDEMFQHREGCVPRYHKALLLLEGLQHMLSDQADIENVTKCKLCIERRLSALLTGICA
Description: as §1
FIG. 4. ULKTACs retain ULK1 agonist activity and subsequent induction of autophagy (A) Western blot of PANC-1 cells treated with ULKTACs±bafilomycin, probed for p-ULK1 (S317), ULK1, p62, b-Actin, LC31 and LC3II. Quantifications of (A) for the pULK1:ULK1 ratio (B) LC3I:LC3II ratio (C) and changes in p62 (D). (E) Representative images of PANC-1 cells stably expressing the mCherry-EGFP-LC3 tandem reporter treated with ULKTACs w/or w/o bafilomycin. Nuclei stained with Hoechst 33342, autophagosomes are shown in the EGFP channel and autolysosomes in the mCherry channel. Fold change in the number of autophagosome (F) and autolysosome (G) puncta. Data shown are mean±SEM, *p<0.05, ** p<0.01, *** p<0.001, one-way ANOVA, Dunnett's multiple comparisons test.
Cells were homogenised in protein lysis buffer consisting of 0.1 M Tris pH 8.0, 0.1 M NaCl, 5% glycerol, IGEPAL® CA-630 (#18896. Sigma-Aldrich) and 5 mM EDTA, 0.1 M N-ethyl maleimide (ThermoFisher, #23030) and protease inhibitor (Cell Signalling Technologies, #5871). Protein concentrations were determined using the BCA assay to ensure equal loading. […] The membranes were immunoblotted with primary antibodies, overnight at 4° C. ULK1 (D8H5) Rabbit mAb (#0854) [1:1000], Phospho-ULK1 (Ser 317) Rabbit antibody (#37762) [1:1000], LC3B Rabbit antibody (#2775) [1:1000], TOM20 (D8T4N) Rabbit mAb (#42406) [1:1000] and, Phospho-Ubiquitin (Ser 65) (E2J6T) Rabbit mAb (#62082) [1:500] were obtained from Cell Signalling Technologies. Recombinant Anti-Vinculin Rabbit antibody (EPR8185) (#ab129002) [1:5000] and Anti-Mitofusin2 mouse antibody (6A8) (#ab56889) [1:1000] were purchased from Abcam. […]
as §2

Structure (SMILES)	p62/SQSTM1 levels (p62/SQSTM1)	phosphorylation of ULK1 at Ser317 (ULK1)	activation of ULK1 and autophagy (overall) (ULK1)
O=C(Nc1cc(C(F)(F)F)cc(C(F)(F)F)c1)N[C@@H](C(=O)Nc1ccc(F)cc1F)c1ccc(OCc2cn(CCOCCOCCNC(=O)C(=O)c3c(-c4ccccc4)[nH]c4ccccc34)nn2)cc1 [NZ-65, (R)-2-(3-(3,5-bis(trifluoromethyl)phenyl)ureido)-N-(2,4-difluorophenyl)-2-(4-((1-(2-(2-(2-(2-oxo-2-(2-phenyl-1H-indol-3-yl)acetamido)ethoxy)ethoxy)ethyl)-1H-1,2,3-triazol-4-yl)methoxy)phenyl) acetamide]	mild reductions in p62/SQSTM1	strong increase in phospho-Ser317 levels	–
O=C(Nc1ccc(F)cc1F)[C@H](NC(=S)Nc1cc(C(F)(F)F)cc(C(F)(F)F)c1)c1ccccc1 [BL-918, reference compound]	reduction in p62/SQSTM1 levels	induction of phosphorylation of ULK1 at Ser317	potent activator of ULK1 and autophagy
O=C(Nc1cc(C(F)(F)F)cc(C(F)(F)F)c1)N[C@@H](C(=O)Nc1ccc(F)cc1F)c1ccc(OCc2cn(CCCCCCNC(=O)C(=O)c3c(-c4ccccc4)[nH]c4ccccc34)nn2)cc1 [NZ-66, (R)-2-(3-(3,5-bis(trifluoromethyl)phenyl)ureido)-N-(2,4-difluorophenyl)-2-(4-((1-(6-(2-oxo-2-(2-phenyl-1H-indol-3-yl)acetamido)hexyl)-1H-1,2,3-triazol-4-yl)methoxy)phenyl) acetamide]	mild reductions in p62/SQSTM1	strong increase in phospho-Ser317 levels	–
